Publication PMC5550016, “Aminophosphinates against Helicobacter pylori ureolysis—Biochemical and whole-cell inhibition characteristics” (PLoS ONE, 2017)
“And” between values parts separate entries of the source, which are not always exact repeats. Equal values may be shown once. Read-outs that look alike come from different tables or passages of the source.

Experiments:
[1] = biological target: T1, purified recombinant urease from H. pylori (Helicobacter pylori, UniProt B5Z674); test: Inhibition of purified recombinant H. pylori urease (phenol-hypochlorite, Lineweaver-Burk); assay type: biochemical; details: 50 mM phosphate buffer pH 7.5, 37°C, 0.1–2.5 mM urea, competitive reversible inhibition
T1 construct: plasmid pGEM::ureOP, which encodes the entire urease gene cluster, was used to produce recombinant H. pylori urease; made in house; host or cells: E. coli Rosetta2 (DE3) + pGEM::ureOP
Experimental: The kinetic parameters of urease were determined by measuring the initial rates of the reactions in 50 mM phosphate buffer (pH 7.5) at 37°C. Ammonia was routinely quantified by the phenol hypochlorite method as reported previously.
Inhibition studies were conducted by initiating the enzymatic reaction with the addition of the enzyme into assay mixtures (200 μL total volume) containing increasing concentrations of inhibitors and 0.1–2.5 mM urea. After 15 min of incubation at 37°C, the reaction was stopped by adding phenol-hypochlorite reagents and the absorbance of the formed indophenol blue complexes was measured at 650 nm. The Ki values were determined from Lineweaver-Burk plots after testing at least five inhibitor concentrations in a range that depended on their inhibitory strength. The concentration of inhibitor that caused the loss of 50% of the enzyme’s activity (IC50) was determined from the measurements that were performed at a urea concentration of 0.6 mM and calculated using the linear regression of the urease activity versus the logarithm of the inhibitor concentrations.
The values of Ki and IC50 for all analyzed compounds were calculated using the appropriate equations in GraphPad Prism 5. Errors were reported with two significant digits, and each measured parameter was given with the same number of decimal places as its error [32].

[2] = biological target: T2, urease in intact E. coli (pGEM::ureOP) cells (Helicobacter pylori, UniProt B5Z674); test: Urease inhibition in whole cells of E. coli + pGEM::ureOP; assay type: cell-based; details: IC50 exceeding 2 mM considered not active
T2 construct: plasmid pGEM::ureOP, which encodes the entire urease gene cluster, was used to produce recombinant H. pylori urease; expressed in transfected cells; host or cells: E. coli Rosetta2 (DE3) transformed with pGEM::ureOP
Experimental: The expression strain E. coli + pGEM::ureOP was cultured in 150 mL of LB broth (Biocorp, Poland) with 100 μg/mL ampicillin (Polfa, Tarchomin, Poland) at 37°C and induced with IPTG (0.75 mM) and Ni^2+ (0.75 mM) during the exponential growth phase, which was determined by the OD600 measurements (OD600 = 0.6). Further expression was conducted for 24 h at 22°C. The bacterial culture (1 mL) was harvested via centrifugation (2 min, 20 376 x g, 37°C) and washed three times with PBS. The pellets from 1-mL samples of the expression cell culture were resuspended in 100 μL of PBS. The hydrolysis of urea that is catalyzed by whole bacterial cells was performed in 96-well plates (Rotilabo, U-profile). The reaction progress curves were obtained by the addition of bacterial cells (1×10^9 CFU/mL final concentration) into mixtures (300 μL final volume) that contained 5 mM urea and various inhibitor concentrations that depended on their inhibitory strength. Alternatively, the reaction was initiated via the addition of a concentrated solution of urea after a 120-min preincubation of bacterial cells with the inhibitor. Samples (50 μL) of the reaction mixture were removed after the appropriate reaction time. The enzymatic reactions in the samples were terminated via the introduction of 100 μL of phenol-sodium nitroprusside solution, immediately followed by the addition of 100 μL of NaOH-hypochlorite solution. The absorption of indophenol blue was measured at 650 nm using a TECAN-Sunrise absorbance reader equipped with a gradient filter and Magellan software. The IC50 values were determined from the linear regression of the urease activity versus the logarithm of the inhibitor concentration. The reaction was studied in the absence and in the presence of the inhibitor. The influence of dimethylformamide (DMF), which was used as a solvent for several compounds, was also determined.

[3] = biological target: T3, urease in intact H. pylori J99 (Helicobacter pylori, UniProt P69997); test: Urease inhibition in whole cells of H. pylori J99; assay type: cell-based
T3 construct: In the intact H. pylori J99 cells, the urease susceptibility profile was similar to that of E. coli (pGEM::ureOP); endogenous in cells

[4] = tested on: mouse fibroblasts BALB/3T3; test: Sulforhodamine B antiproliferative assay, BALB/3T3; assay type: cell-based; details: compound 0.5 mM, 72 h, read-out: % Proliferation inhibition ± SD
Experimental: (§1) The BALB/3T3 cell line was cultured in Dulbecco MEM (Gibco, Scotland) supplemented with 10% (v/v) FBS (Sigma-Aldrich, Poznań, Poland) and 2 mM L-glutamine (Sigma-Aldrich, Poznań, Poland). The MCF-10A cell line was cultured in F-12 Nutrient mixture supplemented with 5% (v/v) horse serum (both Gibco, Scotland), 0.05 μg/mL cholera toxin, 10 μg/mL insulin, 0.5 μg/mL hydrocortisone, and 20 ng/mL EGFH (all Sigma-Aldrich, Poznań, Poland). The Eph4-Ev cell line was cultured in Dulbecco MEM supplemented with 2 mM L-glutamine, 10% (v/v) calf bovine serum (ATCC Rockville, Maryland, USA) and puromycin (Sigma-Aldrich, Poznań, Poland). The HEC A10 cell line was cultured in OPTI-MEM (IIET, Wroclaw, Poland) supplemented with 2 mM L-glutamine and 5% (v/v) FBS. All culture media were additionally supplemented with antibiotics: 100 U/mL penicillin and 100 μg/mL streptomycin (both Polfa-Tarchomin, Poland). During all experiments, cells were maintained in a humid atmosphere at 37°C and 5% CO2 and passaged twice a week using EDTA-Trypsin (pH 8; IIET, Wroclaw, Poland) solution as a detachment agent.
(§2) This assay was used as previously described with minor modifications. Briefly, 24 h before adding the tested compounds, cells were seeded in 96-well plates (Sarstedt, Germany) in appropriate culture medium with 10^5 […] (100 μL/well). Cells were treated with each compound in at least four concentrations in the range from 500–4 μM for 72 h. Next, cells were fixed with 50 μL/well of 50% (w/v) trichloroacetic acid (Avantor Performance Materials, Gliwice, Poland). After a 1-hour incubation, the plates were washed several times with tap water, and 50 μL of 0.4% (w/v) solution of sulforhodamine B (Sigma-Aldrich, Germany) in 1% (v/v) acetic acid (Avantor Performance Materials, Gliwice, Poland) was added to each well. After a 30-min incubation at room temperature, unbound dye was washed out with 1% (v/v) acetic acid, whereas bound dye was solubilized with 10 mM unbuffered TRIS (Avantor Performance Materials, Gliwice, Poland) solution. The entire procedure was performed using an EL-406 washing station (BioTek Instruments, USA). Next, absorbance at 540 nm was measured using a Synergy H4 Hybrid Reader (BioTek Instruments, USA). Compounds at each concentration were tested in triplicate in a single experiment, and each experiment was repeated three times independently. The results were calculated using the Prolab-3 system based on Cheburator 0.4 software and was presented as proliferation inhibition percentages at the highest concentration used.

[5] = tested on: murine mammary gland epithelium Eph4-Ev; test: Sulforhodamine B antiproliferative assay, Eph4-Ev; assay type: cell-based; details: Mus musculus, compound 0.5 mM, 72 h, read-out: % Proliferation inhibition ± SD
Experimental: as §1, §2

[6] = tested on: immortalized murine endothelial cell line from peripheral lymph node HEC A10; test: Sulforhodamine B antiproliferative assay, HEC A10; assay type: cell-based; details: Mus musculus, compound 0.5 mM, 72 h, read-out: % Proliferation inhibition ± SD
Experimental: as §1, §2

[7] = tested on: human mammary gland MCF-10A; test: Sulforhodamine B antiproliferative assay, MCF-10A; assay type: cell-based; details: compound 0.5 mM, 72 h, read-out: % Proliferation inhibition ± SD
Experimental: as §1, §2

[8] = set-up: method as in PMID 9508511; details: pH 2; cited from earlier work
[9] = biological target: purified urease from Proteus mirabilis (PMU); set-up: method as in PMID 18717581, PMID 20684601, PMID 21559954, PMID 25699141; details: read-out: Ki against PMU; cited from earlier work
[10] = biological target: purified urease from Sporosarcina pasteurii (SPU); set-up: method as in PMID 18717581, PMID 20684601, PMID 21559954, PMID 25699141; details: read-out: Ki against SPU; cited from earlier work
[11] = IC500, without preincubation of cells with inhibitory compounds, 30-min reactions, 5 mM urea
[12] = IC502h PBS, 2 h of preincubation with inhibitors in PBS
[13] = cells grown with urea, 2 h of preincubation with inhibitors in PBS under microaerobic conditions, read-out: IC502h PBS
[14] = cells grown with urea, 2 h of preincubation with inhibitors in growth medium under microaerobic conditions, read-out: IC502h medium
[15] = cells grown with urea, without preincubation, read-out: IC500
[16] = cells grown without urea, 2 h of preincubation with inhibitors in PBS under microaerobic conditions, read-out: IC502h PBS
[17] = cells grown without urea, without preincubation, read-out: IC500
[18] = read-out: IC500, without preincubation of cells with inhibitory compounds, 30-min reactions, 5 mM urea
[19] = read-out: IC502h PBS, 2 h of preincubation with inhibitors in PBS

T3 sequence (Q9ZMZ4 whole entry): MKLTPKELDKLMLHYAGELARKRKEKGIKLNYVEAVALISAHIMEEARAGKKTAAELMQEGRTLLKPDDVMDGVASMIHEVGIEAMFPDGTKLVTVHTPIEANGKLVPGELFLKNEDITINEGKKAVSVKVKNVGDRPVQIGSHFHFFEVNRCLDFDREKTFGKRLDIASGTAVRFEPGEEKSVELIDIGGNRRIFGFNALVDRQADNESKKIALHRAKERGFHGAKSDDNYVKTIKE
T3 sequence (P69997 whole entry): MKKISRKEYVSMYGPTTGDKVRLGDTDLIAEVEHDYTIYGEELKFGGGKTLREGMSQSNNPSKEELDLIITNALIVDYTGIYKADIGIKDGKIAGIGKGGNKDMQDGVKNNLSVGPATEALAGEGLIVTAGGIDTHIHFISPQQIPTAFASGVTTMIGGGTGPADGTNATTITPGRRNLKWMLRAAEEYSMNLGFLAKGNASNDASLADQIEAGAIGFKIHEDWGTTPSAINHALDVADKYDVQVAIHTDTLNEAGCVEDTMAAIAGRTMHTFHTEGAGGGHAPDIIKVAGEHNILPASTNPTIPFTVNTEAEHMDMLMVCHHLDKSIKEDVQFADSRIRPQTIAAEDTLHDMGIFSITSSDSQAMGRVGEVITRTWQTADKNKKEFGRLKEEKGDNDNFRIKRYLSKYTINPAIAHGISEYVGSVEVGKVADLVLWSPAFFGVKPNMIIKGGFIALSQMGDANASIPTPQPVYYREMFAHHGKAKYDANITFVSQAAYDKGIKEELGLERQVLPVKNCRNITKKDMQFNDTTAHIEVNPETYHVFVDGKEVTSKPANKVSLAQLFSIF
T2 sequence (B5Z674 whole entry, looked up): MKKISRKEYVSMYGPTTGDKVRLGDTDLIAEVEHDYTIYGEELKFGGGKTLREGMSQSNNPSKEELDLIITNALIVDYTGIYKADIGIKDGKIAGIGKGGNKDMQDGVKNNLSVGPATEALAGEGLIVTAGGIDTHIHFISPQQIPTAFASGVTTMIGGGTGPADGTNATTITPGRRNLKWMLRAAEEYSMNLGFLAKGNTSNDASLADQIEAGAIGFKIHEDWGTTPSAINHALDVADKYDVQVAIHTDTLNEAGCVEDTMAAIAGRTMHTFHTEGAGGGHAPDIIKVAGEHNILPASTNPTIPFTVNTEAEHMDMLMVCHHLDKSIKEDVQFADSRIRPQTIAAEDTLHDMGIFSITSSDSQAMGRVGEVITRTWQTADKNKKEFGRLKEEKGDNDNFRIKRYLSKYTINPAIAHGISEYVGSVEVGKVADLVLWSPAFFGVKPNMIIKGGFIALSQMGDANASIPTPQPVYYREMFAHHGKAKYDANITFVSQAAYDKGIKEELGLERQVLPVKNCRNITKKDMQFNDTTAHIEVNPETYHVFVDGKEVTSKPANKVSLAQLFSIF
T1 sequence (B5Z674 whole entry, looked up): as above

Structure (SMILES) | Ki ([1]; Ki) | IC50 [2, 11] | IC50 [2, 12] | IC50 [3, 13] | IC50 [3, 14] | IC50 [3, 15] | IC50 [3, 16] | IC50 [3, 17] | inhibition at 500 µM [4] | inhibition at 500 µM [5] | inhibition at 500 µM [6] | inhibition at 500 µM [7] | IC50 ([3]; cells grown without urea, preincubated cells, read-out: IC50) | half-life [8] | Ki [9] | Ki [10] | IC50 [2, 18] | IC50 [2, 19] | IC500 ([2]; without preincubation of cells with inhibitory compounds, 30-min reactions, 5 mM urea) | Ki [1]
CNCP(=O)(O)O [Compound 1, N-methylaminomethylphosphonic acid] | 38.3 ± 1.1 µM | 164 ± 24 µM | 110 ± 21 µM | 349 ± 29 µM | 202 ± 43 µM | 400 ± 8.7 µM | 598 ± 81 µM | 316 ± 18 µM | 2.7 ± 1.8% | 1.3 ± 2.3% | 0% | 0% |  |  |  |  |  |  |  | 
CNCP(=O)(O)CN [Compound 7] | 20.9 ± 2 µM | 880 ± 105 µM | 440 ± 61 µM | 456 ± 45 µM | 574 ± 44 µM | > 2000 µM | 418 ± 48 µM | 327 ± 68 µM | 0% | 3.9 ± 2.1% | 0% | 0% | < 500 µM |  |  |  |  |  |  | 
CNCP(C)(=O)O [Compound 2] | 61.6 ± 3.5 µM | 573 ± 76 µM | 306 ± 48 µM | 468 ± 21 µM | 274 ± 87 µM | 597.4 ± 5.2 µM | 852 ± 40 µM | 480 ± 79 µM | 1.4 ± 1.1% | 1.1 ± 1% | 0% | 0% |  |  |  |  |  |  |  | 
CCCNCP(=O)(O)CN [Compound 9] | 22.1 ± 2.1 µM | 746 ± 94 µM | 306 ± 43 µM | 940 ± 59 µM | 553 ± 44 µM | 1500 ± 160 µM | 883 ± 96 µM | 772 ± 143 µM | 0.7 ± 0.6% | 0% | 2.2 ± 1.5% | 0% |  |  |  |  |  |  |  | 
NP(N)(=O)NC(=O)c1ccc(F)cc1 [fluorofamide, N-(diaminophosphinyl)-4-fluorobenzamide] |  |  |  |  |  |  |  |  |  |  |  |  |  | 5 min |  |  |  |  |  | 
CCCCCCNCP(=O)(O)CN [Compound 13, N-n-hexylaminomethyl-P-aminomethylphosphinic acid] | 0.29 µM and 0.294 µM | 186 ± 30 µM | 16.9 ± 2.2 µM | 608 ± 23 µM | 205 ± 15 µM | 510 ± 16 µM | 742 ± 55 µM | 597 ± 19 µM | 6.5 ± 3.6% | 0% | 0% | 0.5 ± 0.4% |  |  | 0.2 µM |  |  |  |  | 
CN(C)CP(C)(=O)O [Compound 3, N,N-dimethylaminomethyl-P-methylphosphinic acid] | 9.27 ± 0.35 µM | 179 ± 32 µM | 25.1 ± 4.9 µM | 395 ± 37 µM | 304 ± 16 µM | 640 ± 18 µM | 765 ± 31 µM | 530 ± 24 µM |  |  |  |  |  |  |  | 0.62 µM |  |  |  | 
NCP(=O)(O)CN [Compound 6, Bis(aminomethyl)phosphinic acid] | 61 ± 9.2 µM |  |  | > 2000 µM | > 2000 µM | > 2000 µM | 611 ± 63 µM | 1300 ± 239 µM | 3.2 ± 1.6% | 0% | 7.7 ± 2.4% | 0% |  |  |  |  | > 2000 µM | > 2000 µM | complete lack of inhibitory effects | 
CCCCCCCCNCP(=O)(O)CN [Compound 15] |  |  |  | 712 ± 28 µM | 276 ± 17 µM | 1010 ± 84 µM | 638 ± 22 µM | 1260 ± 53 µM | 0% | 2.7 ± 1.1% | 0% | 1.8 ± 1.2% |  |  |  |  | > 2000 µM | > 2000 µM |  | > 2000 µM
CNCP(=O)(O)CNC [Compound 21, bis(N-methylaminomethyl)phosphinic acid] | 26.1 ± 1.8 µM | 1260 ± 189 µM | 269 ± 39 µM | 549 ± 15 µM | 117 ± 7.4 µM | 443 ± 24 µM | 132 ± 21 µM | 581 ± 37 µM | 0% | 2.2 ± 1.5% | 0% | 0% |  |  |  |  |  |  |  | 
CNCP(=O)(O)CO [Compound 4, N-methylaminomethyl-P-hydroxymethylphosphinic acid] | 1.03 µM | 759 ± 106 µM | 430 ± 63 µM | 373 ± 48 µM | 207 ± 11 µM | 465 ± 42 µM | 676 ± 23 µM | 341 ± 41 µM | 0% | 0% | 0% | 0% |  |  |  | 0.43 µM |  |  |  | 
